# Assay results as given in patent US11419841B2, “Uses of lipophenolic compounds” (Universite De Montpellier, priority 2017, dated 2022).
# Entries after “also recorded” stand apart in the source; their conditions may differ.
# Legend:
# MMP-9 [1] = target: T1, MMP-9 (Homo sapiens, UniProt P14780); test: MMP-9 activity in TNF-alpha activated THP-1 cell line (gelatin zymography); type: cell-based; settings: for inhibition of MMP-9 activity: 30 μM, 24 h, THP-1 activated with 10 ng/mL TNF-α, zymogram (FIG. 3); for dose-response effect on the inhibitory activity of MMP9: zymogram and curve (FIG. 4)
# T1 construct: endogenous in cells
# Procedure: THP-1 cells (human monocytic THP-1 cell line) were cultured in 10% heated inactivated FBS RPMI 1640 medium supplemented with penicillin G 100 units/mL and streptomycin 100 μg/mL purchased from Fisher Scientific™ (Illkirch-Graffenstaden, France).
# THP-1 cells were seeded (3×10^5 cell/well) in 24-well plate with 10 ng/mL TNF-α with or without 30 μM of resveratrol derivatives dissolved in DMSO. After 24 hours incubation at 37° C., supernatant was collected and tested on zymography.
# Low-serum (1%) RPMI-1640 medium was used for the assessment of MMP-9 activity on TNF-alpha activated THP-1 cell line 3×10^6 cell/mL. Firstly, resveratrol and its derived lipophenolic compounds were dissolve in DMSO, and incubated at a final concentration of 30 μM with 10 ng/mL TNF-alpha treated THP-1 in CO2 incubator chamber for 24 hours at 37° C. After incubation, cell suspension was centrifuged at 1200 r.p.m for five minutes, supernatant was recovered and stored at −80° C. for zymogram analysis.
# The anti MMP-9 activity was assessed using gelatin zymography. In brief, the collected supernatants were loaded on 10% SDS-polyacrylamide gel electrophoresis (PAGE) supplemented with 1% gelatin without reducing agents. After separation, gels were washed three times with 2.5% Triton X-100 and incubated with gelatinase buffer (NaCl 200 mM, Tris Base 50 mM, CaCl2) 5 mM and ZnCl2 0.25 mM; pH 7.5), for 24 hr at 37° C. on an orbital shaker at 100 r.p.m/min. Gels were further stained for one hour with Commassie Blue-staining solution (0.025% Commassie Blue, 40% methanol and 10% acetic acid) followed by destaining with 20% methanol and 10% glacial acetic acid solution until the clear bands appearance. Gels were photographed and analyzed by GelAnalyzer 2010a™ software.
# [2] = system: HUVEC cells and THP-1 cell line; test: Cell viability assay (MTT assay); type: cell-based; settings: 10, 20, 40 μM, 72 h, MTT (FIG. 6)
# Procedure: The MTT assay is a test used to evaluate the cytotoxicity of compounds.
# The cytotoxicity assay was carried out as described by Mosmann (Mosmann 1983). HUVEC cells and THP-1 cell line (1×10^4 cell/well) were seeded in 96-well plate and incubated CO2 incubator chamber at 37° C. for 24 h. Cells were treated with serial dilutions of lipophenolic derivative of resveratrol at a final concentration of 10, 20, 40 and 80 μM, and plate was incubated for 72 hours. Supernatant was discarded and MTT-serum-free medium was added to each plate and incubated for three additional hours. The formed formazan blue crystals were further dissolved by addition of 100 μL of 10% SDS in 0.1 N HCl to each plate for 2 hours. The optical density was measured at 570 nm (reference filter 690 nm) using a TECAN™ plate reader. Lethal Concentration 50% (LC50) was calculated using GraphPad Prism v.5 software.
# [3] = in vivo; Walle 2011, Chang et al. 2016; cited from earlier work
# MMP-9 [4] = settings: Cheng et al. 2009, Gao et al. 2014; cited from earlier work
# HUVEC monolayer = test: In vitro vascular permeability assay (FITC-dextran endothelial permeability assay); type: cell-based, human; settings: 10 μM, 100 ng/mL TNF-α, 24 h (FIG. 5)
# Procedure: Human umbilical vascular endothelial cells (HUVECs) were cultured in low serum (1%) EndoGro™ medium kit purchased from Merck Millipore™ (Paris, France). TNF-α was purchased from PeproTech™ (Neuilly-Sur-Seine, France). The permeability of HUVEC monolayer seeded on collagen coated semi-permeable inserts was examined using in vitro vascular permeability assay kit, Millipore™ (Paris, France) according to the manufacturer protocol. Endothelial cells are seeded into the inserts and cultured until complete monolayer formation occurs. After forming confluent monolayer by seeding HUVECs (4×10^5 cells/insert) for 48 hours, medium was replaced with 100 ng/mL TNF-α in medium with and without MMP-9 inhibitors at 10 μM and incubated for 24 hours in CO2 chamber at 37° C. Lipophenolic derivatives of resveratrol were dissolved in DMSO, and SB-3CT (gelatinase inhibitor) was dissolved in DMSO. At the end of the permeability treatment, 150 μl FITC-dextran in media solution were incubated for 20 minutes at room temperature protected from light. FITC-dextran permeates the treated cell monolayer into the plate well. Permeation was stopped by removing the inserts and 100 μl were withdrawn from the receiving tray and added to 96-well opaque plate for fluorescence measurement. The resulting fluorescence in the plate well is measured and used as an indicator of the extent of monolayer permeability. […]
# [5] = system: TNF-α release by LPS-activated BV-2 microglia; test: TNF-α release by LPS-activated BV-2 microglia (AlphaLISA); type: cell-based, murine; settings: 30 μM, 24 h after LPS, BV2 cells, mean±SEM (FIG. 7)
# Procedure: BV-2 cells that are derived from raf/myc-immortalised murine neonatal microglia are the most frequently used substitute for primary microglia (Blasi et al., 1990).
# BV-2 cells were maintained in 75 cm2 culture flasks in Dulbecco's Modified Eagle's Medium (DMEM, Sigma) supplemented with 10% fetal bovine serum (FBS, Sigma) and 1% Penicillin-Streptomycin solution (Sigma), and cultured at 37° C. in a humidified atmosphere of 5% CO2.
# BV-2 cells were plated on 24-well plates at a density of 10^5 cells per well. On the following day cells were subjected to different treatments. To study the effect of Resv-LA on TNF-alpha production by LPS activated BV-2 cells, the cells were incubated in medium containing 1 mg/ml LPS (Sigma-Aldrich) for 24 h, with or without Resv-LA (REV-LA) 30 μM.
# Supernatants from untreated and treated cells were centrifuged at 5000 rpm for 5 minutes and assayed for their TNF-α contents using the TNF-α (mouse) AlphaLISA Detection Kit of Perkin-Elmer. TNF-α released was normalized by cell number and expressed as percentage of the maximal released obtained in the LPS-stimulated condition.
# Data are expressed as mean±SEM. Statistical analysis of differences between groups was performed by using unpaired t-test/Mann-Whitney. […]
# T1 sequence (P14780 94-707): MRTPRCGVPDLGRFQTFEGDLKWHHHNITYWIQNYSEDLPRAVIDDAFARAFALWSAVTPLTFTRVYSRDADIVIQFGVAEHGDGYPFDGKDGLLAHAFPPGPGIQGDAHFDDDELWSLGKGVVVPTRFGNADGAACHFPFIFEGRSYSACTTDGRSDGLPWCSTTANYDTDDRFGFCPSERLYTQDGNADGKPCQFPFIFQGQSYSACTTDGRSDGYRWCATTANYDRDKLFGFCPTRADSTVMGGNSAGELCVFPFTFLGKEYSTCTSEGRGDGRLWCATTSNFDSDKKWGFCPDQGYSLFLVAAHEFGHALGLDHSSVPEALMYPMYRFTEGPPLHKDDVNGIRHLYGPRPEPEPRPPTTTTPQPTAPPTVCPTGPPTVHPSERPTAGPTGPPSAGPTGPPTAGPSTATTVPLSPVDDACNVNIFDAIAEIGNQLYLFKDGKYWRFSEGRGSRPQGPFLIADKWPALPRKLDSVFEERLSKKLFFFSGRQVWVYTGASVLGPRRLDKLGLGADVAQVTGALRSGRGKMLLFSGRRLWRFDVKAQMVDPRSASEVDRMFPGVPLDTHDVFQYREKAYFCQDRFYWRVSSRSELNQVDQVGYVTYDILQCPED
SMILES,inhibition of MMP-9 activity (MMP-9 [1]),dose-response effect on the inhibitory activity of MMP9 (MMP-9 [1]),cytotoxic effect on viability [2],also measured
"CCCCCCCCCCCCCCCCCCCCCC(=O)Oc1ccc(/C=C/c2cc(O)cc(O)c2)cc1 [Resv-C22, (E)-4-(3,5-dihydroxystyryl)phenyl docosanoate]",demonstrated inhibition of MMP9-activity,dose-response effect,does not have cytotoxic effect,
Oc1ccc(C=Cc2cc(O)cc(O)c2)cc1 [Resveratrol],,,,bioavailability [3]: poor bioavailability; inhibition of the activity of MMP-9 (reported) (MMP-9 [4]): inhibit the activity of MMP-9
"CCCCC/C=C\C/C=C\CCCCCCCC(=O)Oc1ccc(/C=C/c2cc(O)cc(O)c2)cc1 [Resv-LA, (9,12Z)-4-((E)-3,5-dihydroxystyryl)phenyl octadeca-9,12-dienoate]",best activity; also recorded: demonstrated inhibition of MMP9-activity,dose-response effect,does not have cytotoxic effect,"inhibition of TNF-alpha-enhanced permeability of the HUVEC monolayer (HUVEC monolayer): demonstrated inhibition; TNF-α released, as percentage of the maximal released obtained in the LPS-stimulated condition [5]: 66.1±4.2 percentage"
"CC/C=C\C/C=C\C/C=C\C/C=C\C/C=C\C/C=C\CCC(=O)Oc1ccc(/C=C/c2cc(O)cc(O)c2)cc1 [4′-Resv-DHA, (4,7,10,13,16,19 Z)-4-((E)-3,5-dihydroxyphenylstyryl)phenyl docosa-4,7,10,13,16,19-hexaenoate]",reduced MMP-9 activity,,,
"CC/C=C\C/C=C\C/C=C\C/C=C\C/C=C\C/C=C\CCC(=O)Oc1cc(O)cc(/C=C/c2ccc(O)cc2)c1 [Compound 3-Resv-DHA, (4,7,10,13,16,19Z)-3-hydroxy-5-((E)-4-hydroxystyryl)phenyl docosa-4,7,10,13,16,19-hexaenoate]",did not show any inhibitory activity; also recorded: not active,,,
